Source: patent publication US20250230193A1, “CYCLIC COMPOUND HAVING SELECTIVE KRAS INHIBITORY EFFECT ON HRAS AND NRAS” (CHUGAI SEIYAKU KABUSHIKI KAISHA, priority 2022, published 2025)

Assays:
[1] = target: GDP-bound HRAS wild-type protein (Homo sapiens, UniProt P01112); assay: Binding to HRAS by surface plasmon resonance (SPR), Single Cycle Kinetics; conditions: KD ratio, GDP-bound HRAS wild-type vs GDP-bound KRAS wild-type, SPR
[2] = target: GDP-bound NRAS wild-type protein (Homo sapiens, UniProt P01111); assay: Binding to NRAS by surface plasmon resonance (SPR), Single Cycle Kinetics; conditions: KD ratio, GDP-bound NRAS wild-type vs GDP-bound KRAS wild-type, SPR
Chain of GDP-bound NRAS wild-type protein (P01111 whole entry): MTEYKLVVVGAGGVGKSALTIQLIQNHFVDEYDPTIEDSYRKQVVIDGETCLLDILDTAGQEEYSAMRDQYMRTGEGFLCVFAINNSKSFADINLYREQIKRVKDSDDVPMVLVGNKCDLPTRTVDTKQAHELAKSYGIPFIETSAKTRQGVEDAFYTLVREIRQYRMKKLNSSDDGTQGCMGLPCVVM

Chain of GDP-bound HRAS wild-type protein (P01112 whole entry): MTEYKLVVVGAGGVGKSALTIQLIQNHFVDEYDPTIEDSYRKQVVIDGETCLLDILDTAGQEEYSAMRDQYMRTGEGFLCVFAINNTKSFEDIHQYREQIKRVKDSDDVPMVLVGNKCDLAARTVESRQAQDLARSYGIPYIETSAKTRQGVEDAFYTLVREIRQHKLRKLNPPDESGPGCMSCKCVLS

Row | SMILES | HRAS/KRAS (ratio of KD value with respect to HRAS to KD value with respect to KRAS) [1] | NRAS/KRAS (ratio of KD value with respect to NRAS to KD value with respect to KRAS) [2]
1 | CCO[C@@H]1C[C@H]2C(=O)NC3(CCC3)C(=O)N(C)[C@@H](C3CCCC3)C(=O)N(C)[C@H](C(=O)N3CCOCC3)CC(=O)N(C)[C@@H](COCC(F)(F)F)C(=O)N[C@@H]([C@@H](C)CC)C(=O)N(C)CC(=O)N(C)[C@H]3CCCCCN(C3=O)[C@@H](Cc3ccc(C(F)(F)F)cc3)C(=O)N(C)CC(=O)N[C@@H](CCc3cc(F)c(C(F)(F)F)c(F)c3)C(=O)N2C1 [PP0853] | B (a compound having 3 or more and less than 10 is denoted as B) | B (a compound having 3 or more and less than 10 is denoted as B)
2 | CCO[C@@H]1C[C@H]2C(=O)NC3(CCC3)C(=O)N(C)[C@@H](C3CCCC3)C(=O)N(C)[C@H](C(=O)N3CCOCC3)CC(=O)N(C)[C@@H](CC(F)F)C(=O)N[C@@H]([C@@H](C)CC)C(=O)N(C)CC(=O)N(C)[C@H]3CCCCCN(C3=O)[C@@H](Cc3ccc(C(F)(F)F)cc3)C(=O)N(C)CC(=O)N[C@@H](CCc3cc(F)c(C(F)(F)F)c(F)c3)C(=O)N2C1 [PP0854] | B (a compound having 3 or more and less than 10 is denoted as B) | B (a compound having 3 or more and less than 10 is denoted as B)
3 | CCO[C@@H]1C[C@H]2C(=O)NC3(CCC3)C(=O)N(C)[C@@H](C3CCCC3)C(=O)N(C)[C@H](C(=O)N3CCOCC3)CC(=O)N(C)[C@@H](Cc3cscn3)C(=O)N[C@@H]([C@@H](C)CC)C(=O)N(C)CC(=O)N(C)[C@H]3CCCCCN(C3=O)[C@@H](Cc3ccc(C(F)(F)F)cc3)C(=O)N(C)CC(=O)N[C@@H](CCc3cc(F)c(C(F)(F)F)c(F)c3)C(=O)N2C1 [PP0855] | B (a compound having 3 or more and less than 10 is denoted as B) | B (a compound having 3 or more and less than 10 is denoted as B)
4 | CCO[C@@H]1C[C@H]2C(=O)NC3(CCC3)C(=O)N(C)[C@@H](C3CCCC3)C(=O)N(C)[C@H](C(=O)N3CCOCC3)CC(=O)N(C)[C@@H](Cc3cccc(F)c3)C(=O)N[C@@H]([C@@H](C)CC)C(=O)N(C)CC(=O)N(C)[C@H]3CCCCCN(C3=O)[C@@H](Cc3ccc(C(F)(F)F)cc3)C(=O)N(C)CC(=O)N[C@@H](CCc3cc(F)c(C(F)(F)F)c(F)c3)C(=O)N2C1 [PP0856] | B (a compound having 3 or more and less than 10 is denoted as B) | B (a compound having 3 or more and less than 10 is denoted as B)
5 | CCO[C@@H]1C[C@H]2C(=O)NC3(CCC3)C(=O)N(C)[C@@H](C3CCCC3)C(=O)N(C)[C@H](C(=O)N3CCOCC3)CC(=O)N(C)[C@@H](Cc3cccc(Cl)c3)C(=O)N[C@@H]([C@@H](C)CC)C(=O)N(C)CC(=O)N(C)[C@H]3CCCCCN(C3=O)[C@@H](Cc3ccc(C(F)(F)F)cc3)C(=O)N(C)CC(=O)N[C@@H](CCc3cc(F)c(C(F)(F)F)c(F)c3)C(=O)N2C1 [PP0857] | B (a compound having 3 or more and less than 10 is denoted as B) | B (a compound having 3 or more and less than 10 is denoted as B)
6 | CCO[C@@H]1C[C@H]2C(=O)NC3(CCC3)C(=O)N(C)[C@@H](C3CCCC3)C(=O)N(C)[C@H](C(=O)N3CCOCC3)CC(=O)N(C)[C@@H](COC)C(=O)N[C@@H]([C@@H](C)CC)C(=O)NCC(=O)N(C)[C@H]3CCCCCN(C3=O)[C@@H](Cc3ccc(C(F)(F)F)cc3)C(=O)N(C)CC(=O)N[C@@H](CCc3cc(F)c(C(F)(F)F)c(F)c3)C(=O)N2C1 [PP0858] | B (a compound having 3 or more and less than 10 is denoted as B) | B (a compound having 3 or more and less than 10 is denoted as B)
7 | CCO[C@@H]1C[C@H]2C(=O)NC3(CCC3)C(=O)N(C)[C@@H](C3CCCC3)C(=O)N(C)[C@H](C(=O)N(C)C)CC(=O)N(C)[C@@H](COC)C(=O)N[C@@H]([C@@H](C)CC)C(=O)NCC(=O)N(C)[C@H]3CCCCCN(C3=O)[C@@H](Cc3ccc(C(F)(F)F)cc3)C(=O)N(C)CC(=O)N[C@@H](CCc3cc(F)c(C(F)(F)F)c(F)c3)C(=O)N2C1 [PP0859] | B (a compound having 3 or more and less than 10 is denoted as B) | B (a compound having 3 or more and less than 10 is denoted as B)
8 | CC[C@H](C)[C@@H]1NC(=O)[C@H](COC)N(C)C(=O)C[C@@H](C(=O)N2CCOCC2)N(C)C(=O)[C@H](C2CCCC2)N(C)C(=O)C2(CCC2)NC(=O)[C@@H]2CCCN2C(=O)[C@H](CCc2cc(F)c(C(F)(F)F)c(F)c2)NC(=O)CN(C)C(=O)[C@H](Cc2ccc(C(F)(F)F)cc2)N2CCCCC[C@@H](C2=O)N(C)C(=O)CNC1=O [PP0860] | B (a compound having 3 or more and less than 10 is denoted as B) | B (a compound having 3 or more and less than 10 is denoted as B)
9 | CC[C@H](C)[C@@H]1NC(=O)[C@H](COC)N(C)C(=O)C[C@@H](C(=O)N2CCOCC2)N(C)C(=O)[C@H](C2CCCC2)N(C)C(=O)C2(CCC2)NC(=O)[C@@H]2CC(F)(F)CN2C(=O)[C@H](CCc2cc(F)c(C(F)(F)F)c(F)c2)NC(=O)CN(C)C(=O)[C@H](Cc2ccc(C(F)(F)F)cc2)N2CCCCC[C@@H](C2=O)N(C)C(=O)CNC1=O [PP0861] | B (a compound having 3 or more and less than 10 is denoted as B) | B (a compound having 3 or more and less than 10 is denoted as B)
10 | CCO[C@@H]1C[C@H]2C(=O)NC3(CCCC3)C(=O)N(C)[C@@H](C3CCCC3)C(=O)N(C)[C@H](C(=O)N3CCOCC3)CC(=O)N(C)[C@@H](COC)C(=O)N[C@@H]([C@@H](C)CC)C(=O)NCC(=O)N(C)[C@H]3CCCCCN(C3=O)[C@@H](Cc3ccc(C(F)(F)F)cc3)C(=O)N(C)CC(=O)N[C@@H](CCc3cc(F)c(C(F)(F)F)c(F)c3)C(=O)N2C1 [PP0862] | B (a compound having 3 or more and less than 10 is denoted as B) | B (a compound having 3 or more and less than 10 is denoted as B)
11 | CCO[C@@H]1C[C@H]2C(=O)NC3(CCC3)C(=O)N(C)[C@@H](C3CCCC3)C(=O)N(C)[C@H](C(=O)N3CCOCC3)CC(=O)N(C)[C@@H](COC)C(=O)N[C@@H]([C@@H](C)CC)C(=O)N3CC[C@H]3C(=O)N(C)[C@H]3CCCCCN(C3=O)[C@@H](Cc3ccc(C(F)(F)F)cc3)C(=O)N(C)CC(=O)N[C@@H](CCc3cc(F)c(C(F)(F)F)c(F)c3)C(=O)N2C1 [PP0863] | B (a compound having 3 or more and less than 10 is denoted as B) | B (a compound having 3 or more and less than 10 is denoted as B)
12 | CCO[C@@H]1C[C@H]2C(=O)NC3(CCC3)C(=O)N(C)[C@@H](C3CCCC3)C(=O)N(C)[C@H](C(=O)N(C)C)CC(=O)N(C)[C@@H](COC)C(=O)N[C@@H]([C@@H](C)CC)C(=O)N3CC[C@H]3C(=O)N(C)[C@H]3CCCCCN(C3=O)[C@@H](Cc3ccc(C(F)(F)F)cc3)C(=O)N(C)CC(=O)N[C@@H](CCc3cc(F)c(C(F)(F)F)c(F)c3)C(=O)N2C1 [PP0864] | B (a compound having 3 or more and less than 10 is denoted as B) | B (a compound having 3 or more and less than 10 is denoted as B)
13 | CC[C@H](C)[C@@H]1NC(=O)[C@H](COC)N(C)C(=O)C[C@@H](C(=O)N2CCOCC2)N(C)C(=O)[C@H](C2CCCC2)N(C)C(=O)C2(CCC2)NC(=O)[C@@H]2CCCN2C(=O)[C@H](CCc2cc(F)c(C(F)(F)F)c(F)c2)NC(=O)CN(C)C(=O)[C@H](Cc2ccc(C(F)(F)F)cc2)N2CCCCC[C@@H](C2=O)N(C)C(=O)[C@@H]2CCN2C1=O [PP0865] | B (a compound having 3 or more and less than 10 is denoted as B) | B (a compound having 3 or more and less than 10 is denoted as B)
14 | CC[C@H](C)[C@@H]1NC(=O)[C@H](COC)N(C)C(=O)C[C@@H](C(=O)N2CCOCC2)N(C)C(=O)[C@H](C2CCCC2)N(C)C(=O)C2(CCC2)NC(=O)[C@@H]2CC(F)(F)CN2C(=O)[C@H](CCc2cc(F)c(C(F)(F)F)c(F)c2)NC(=O)CN(C)C(=O)[C@H](Cc2ccc(C(F)(F)F)cc2)N2CCCCC[C@@H](C2=O)N(C)C(=O)[C@@H]2CCN2C1=O [PP0866] | B (a compound having 3 or more and less than 10 is denoted as B) | B (a compound having 3 or more and less than 10 is denoted as B)
15 | CCO[C@@H]1C[C@H]2C(=O)NC3(CCCC3)C(=O)N(C)[C@@H](C3CCCC3)C(=O)N(C)[C@H](C(=O)N3CCOCC3)CC(=O)N(C)[C@@H](COC)C(=O)N[C@@H]([C@@H](C)CC)C(=O)N3CC[C@H]3C(=O)N(C)[C@H]3CCCCCN(C3=O)[C@@H](Cc3ccc(C(F)(F)F)cc3)C(=O)N(C)CC(=O)N[C@@H](CCc3cc(F)c(C(F)(F)F)c(F)c3)C(=O)N2C1 [PP0867] | B (a compound having 3 or more and less than 10 is denoted as B) | B (a compound having 3 or more and less than 10 is denoted as B)
